A short description of assay [1]: Bleaching of tea stained test cloths, reflectance at 460 nm (Example VII). The settings on record: 40° C., 30 minutes, 1×10^−3 mol peracid in 100 ml demineralised water, EDTA 2×10^−5 M. The protocol:
(§1) Bleaching experiments were carried out in a temperature controlled glass vessel, equipped with a magnetic stirrer, thermocouple and a pH electrode, at a constant temperature of 40° C. pH was adjusted using 0.1M NaOH.
(§2) Peracid prepared according to example I was exchanged with SDS and 1×10^−3 mol added to 100 ml demineralised water and ethylene diamine tetraacteic acid (EDTA) (2×10^−5 M) in the glass vessel. Thereafter, tea stained test cloths were immersed in the solution for 30 minutes. The liquor to cloth ratio was greater than 20:1. After rinsing with tap water, the cloths were dried in a tumble drier.
(§3) Bleaching performance was determined using a Instrumental Colour Systems Micro-match to measure the reflectance, at 460 nm, of the cloths both before and after treatment. The difference (ΔR460*) in the values gives a measure of the effectiveness of the treatment.

A short description of assay [2]: Bleaching of tea stained test cloths with peroxyacid formed in situ with SDS or Coco-PAS (Example VIII). The settings on record: EDTA 2×10^−5 M, pH 10; for ΔR460* Coco-PAS: peracid 1×10^−3 mol with Coco-PAS 2×10^−3 mol in 100 ml demineralised water; for ΔR460* SDS: peracid 1×10^−3 mol with SDS 2×10^−3 mol in 100 ml demineralised water. The protocol: as §1, §2, §3
Example VI was repeated using materials prepared according to examples I-VI and the comparative example. Peracid (1×10^−3 mol) was added to a glass vessel containing 100 ml demineralised water, EDTA, (2×10^−5 M), and SDS or Coco-PAS (2×10^−3 mol), i.e cationic peroxyacids according to the invention were formed in-situ. The pH was adjusted to pH 10 using 0.1NaOH. The difference (ΔR460*) in the values gives a measure of the effectiveness of the bleaching performance.

For `CCCCCCCCC(=O)Oc1ccc(S(=O)(=O)[O-])cc1.[Na+]` [SNOBS, Sodium nonoyloxybenzene sulphonate], the “ΔR460* bleaching performance” value came to 7.5 in assay [1] (pH 9.0) and 5.0 in assay [1] (pH 10.0).
As to `C[N+](C)(Cc1ccccc1)Cc1ccc(C(=O)OO)cc1.Cc1ccc(S(=O)(=O)[O-])cc1` [Example II, α-Benzyl-dimethylammonium-4-peroxytoluic Acid Tosylate], in assay [2], the “ΔR460* Coco-PAS” value is given as 18.9 and the “ΔR460* SDS” value was 21.9.
On to “α-Octyl-dimethylammonium-4-peroxytoluic Acid Tosylate [Comparison]”, for which, in assay [2], the “ΔR460* Coco-PAS” value came to 7.6 and the “ΔR460* SDS” value worked out at 8.0.
In the same order, the values of `CS(=O)(=O)[O-].C[N+](C)(C)Cc1ccc(C(=O)OO)cc1` [Example I, α-Trimethylammonium-4-peroxytoluic Acid Methane Sulphonate] are 26.7 and 24.0.
The like results for “α-Butyl-dimethylammonium-4-peroxytoluic Acid Tosylate [Example V]” were, in that order, 21.8 and 23.7.
The like results for “αHexyl-dimethylammonium-4-peroxytoluic Acid Tosylate [Example III]” were, in that order, 16.1 and 23.5.
`C[N+](C)(C)CCOC(=O)Oc1ccc(S(=O)(=O)[O-])cc1` [CSPC, 2-(N,N,N-trimethylammonium)ethyl-4-sulphonyl carbonate]: the “ΔR460* bleaching performance” value in assay [1] (pH 7.0) was found to be 20.0; in assay [1] (pH 8.0), 22.0; in assay [1] (pH 9.0), 20.0.
Turning to “α-Heptyl-Dimethylammonium-4-Peroxytoluic Acid Tosylate [Example IV]”, the “ΔR460* SDS” value in assay [2] was determined as 14.5.
As for “α-Pentyl-dimethylammonium-4-peroxytoluic Acid Tosylate [Example VI]”, in assay [2], the “ΔR460* Coco-PAS” value is listed as 18.6 and the “ΔR460* SDS” value is recorded as 21.9.
Consider `O=C(CCCCCN1C(=O)c2ccccc2C1=O)OO` [PAP], for which the “ΔR460* bleaching performance” value is 13.0 in assay [1] (pH 7.0), 13.0 in assay [1] (pH 8.0), 6.0 in assay [1] (pH 9.0) and 4.0 in assay [1] (pH 10.0).

These data come from patent publication US6727382B1, “Peroxyacids” (Unilever Patent Holdings, B.V., priority 1992, dated 2004).
